# According to article PMC12655445, “In Vitro and In Vivo Effects of Resveratrol on Rat Hepatic CYP1A2” (Pharmaceuticals, 2025):
# B1: human recombinant CYP1A2 (Homo sapiens) (protein)
# chain: ALSQSVPFSATELLLASAIFCLVFWVLKGLRPRVPKGLKSPPEPWGWPLLGHVLTLGKNPHLALSRMSQRYGDVLQIRIGSTPVLVLSRLDTIRQALVRQGDDFKGRPDLYTSTLITDGQSLTFSTDSGPVWAARRRLAQNALNTFSIASDPASSSSCYLEEHVSKEAKALISRLQELMAGPGHFDPYNQVVVSVANVIGAMCFGQHFPESSDEMLSLVKNTHEFVETASSGNPLDFFPILRYLPNPALQRFKAFNQRFLWFLQKTVQEHYQDFDKNSVRDITGALFKHSKKGPRASGNLIPQEKIVNLVNDIFGAGFDTVTTAISWSLMYLVTKPEIQRKIQKELDTVIGRERRPRLSDRPQLPYLEAFILETFRHSSFLPFTIPHSTTRDTTLNGFYIPKKCCVFVNQWQVNHDPELWEDPSEFRPERFLTADGTAINKPLSEKMMLFGMGKRRCIGEVLAKWEIFLFLAILLQQLEFSVPPGVKVDLTPIYGLTMKHARCEHVQARLRFSIN
# notes: human CYP1A2 expressed with NADPH P450 reductase in Escherichia coli DH5α; bacterial membranes; with NADPH P450 reductase
# Experiments:
# [1] = target: T1, rat liver microsomal CYP1A2 (Rattus norvegicus, UniProt P04799); experiment: MROD fluorescence assay in rat liver microsomes, inhibition kinetics (IC50 […]); assay type: biochemical
# T1 construct: rat liver microsomes
# T1 sequence (P04799 2-513): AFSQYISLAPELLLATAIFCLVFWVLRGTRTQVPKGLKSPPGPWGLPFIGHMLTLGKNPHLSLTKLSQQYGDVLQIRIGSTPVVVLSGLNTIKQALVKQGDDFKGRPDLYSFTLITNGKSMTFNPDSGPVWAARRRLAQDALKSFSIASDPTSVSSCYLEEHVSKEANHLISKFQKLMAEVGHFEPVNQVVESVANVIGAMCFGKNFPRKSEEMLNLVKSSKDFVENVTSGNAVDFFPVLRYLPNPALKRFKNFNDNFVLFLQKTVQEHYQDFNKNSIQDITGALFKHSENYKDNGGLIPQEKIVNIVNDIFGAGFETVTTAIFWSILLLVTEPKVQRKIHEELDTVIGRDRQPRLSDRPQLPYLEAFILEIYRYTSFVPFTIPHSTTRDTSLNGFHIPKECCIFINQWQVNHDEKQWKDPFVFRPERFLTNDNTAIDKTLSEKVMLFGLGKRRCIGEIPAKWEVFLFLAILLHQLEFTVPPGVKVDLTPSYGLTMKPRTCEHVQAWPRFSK
# [2] = substrate: COc1ccc2nc3ccc(=O)cc-3oc2c1; experiment: MROD kinetics with recombinant CYP1A2 membranes; value is Km; assay type: biochemical, Homo sapiens; conditions: heme; NADPH
Molecule,Ki [1],Km [2]
"Oc1ccc(/C=C/c2cc(O)cc(O)c2)cc1 [RSV, trans-3,4′,5-trihydroxystilbene]",49.1 µM,
B1,,1.67 µM
